For one data set, the system named is Nrp1+ Tregs. Description: TGFβ production by Nrp1+ Tregs exposed to glioma conditioned media (ELISA). It counts as cell-based, mice. The following applies: 500 nM pretreatment 2 h, GCM 12 h.
The subject of data set [1] is HUVEC cells. Description: Transwell migration (chemotaxis) of HUVEC cells toward VEGF-A. The following applies: 30 μM, no VEGF-A. It counts as cell-based, human.
The test system of data set [2] is HUVEC cells. As to the kind of experiment: Wound healing scratch assay. It counts as cell-based, human. As to conditions: 30 μM + VEGF-A 25 ng/mL, 1% EGM.
A short description of data set [3]: IV pharmacokinetics in mice. It counts as in vivo. The following applies: for half-life: 2 mg/kg. The method, then:
To test compound drug-like properties, selected compounds with low IC50 were further tested for pharmacokinetics (PK) profile. First, 6–8 week-old BABL/c female mice were used, then 2 mg/kg of compounds was formulated in 7.5% DMSO and 92.5% solution and intravenously dosed from the tail vein as a bolus. Blood samples were collected by cardiac puncture at 5, 15, 30, 60, 180, and 240 min post dosing. Plasma samples were prepared by centrifugation at 7000 rpm for 5 min, and supernatants were collected, immediately snap-frozen on dry ice, and stored at −20C. Samples were analyzed by liquid chromatography–tandem mass spectrometry using electrospray ionization and data was analyzed by WinNonlin software.

The target of the next data set is T1, NRP2 (Homo sapiens, UniProt O60462).
T1 sequence (O60462 23-802 limits assumed): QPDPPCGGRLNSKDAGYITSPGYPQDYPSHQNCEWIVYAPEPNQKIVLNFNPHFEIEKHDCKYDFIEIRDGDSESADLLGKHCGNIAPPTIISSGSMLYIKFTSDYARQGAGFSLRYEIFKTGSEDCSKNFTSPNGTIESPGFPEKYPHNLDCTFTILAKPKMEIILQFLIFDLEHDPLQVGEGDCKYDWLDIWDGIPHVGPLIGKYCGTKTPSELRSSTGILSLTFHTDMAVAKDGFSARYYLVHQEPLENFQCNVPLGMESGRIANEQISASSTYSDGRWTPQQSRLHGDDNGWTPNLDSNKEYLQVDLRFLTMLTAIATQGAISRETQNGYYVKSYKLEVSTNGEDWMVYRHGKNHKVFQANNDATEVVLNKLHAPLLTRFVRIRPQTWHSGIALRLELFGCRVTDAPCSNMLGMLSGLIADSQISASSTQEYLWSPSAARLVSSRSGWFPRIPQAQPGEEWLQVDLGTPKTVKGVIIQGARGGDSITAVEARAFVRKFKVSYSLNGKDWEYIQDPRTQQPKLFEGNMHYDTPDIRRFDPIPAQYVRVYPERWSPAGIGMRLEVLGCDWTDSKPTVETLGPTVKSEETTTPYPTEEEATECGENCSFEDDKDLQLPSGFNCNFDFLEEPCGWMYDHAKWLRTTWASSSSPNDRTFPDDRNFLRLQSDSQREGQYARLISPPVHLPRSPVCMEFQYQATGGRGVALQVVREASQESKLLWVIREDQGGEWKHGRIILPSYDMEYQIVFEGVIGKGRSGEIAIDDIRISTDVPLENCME
As to the kind of experiment: SPR single-cycle binding to NRP2 (Biacore T200). As to conditions: 62.5 – 1000 nM, NRP2 His tagged and NRP2-Fc chimera.

In the next data set the target is T2, DU145/cells.Ad.NRP1 (Homo sapiens, UniProt O14786).
T2 construct: expressed in transfected cells; host or cells: DU145 prostate cancer cells (ATCC) infected with adenovirus
T2 sequence (O14786 22-923): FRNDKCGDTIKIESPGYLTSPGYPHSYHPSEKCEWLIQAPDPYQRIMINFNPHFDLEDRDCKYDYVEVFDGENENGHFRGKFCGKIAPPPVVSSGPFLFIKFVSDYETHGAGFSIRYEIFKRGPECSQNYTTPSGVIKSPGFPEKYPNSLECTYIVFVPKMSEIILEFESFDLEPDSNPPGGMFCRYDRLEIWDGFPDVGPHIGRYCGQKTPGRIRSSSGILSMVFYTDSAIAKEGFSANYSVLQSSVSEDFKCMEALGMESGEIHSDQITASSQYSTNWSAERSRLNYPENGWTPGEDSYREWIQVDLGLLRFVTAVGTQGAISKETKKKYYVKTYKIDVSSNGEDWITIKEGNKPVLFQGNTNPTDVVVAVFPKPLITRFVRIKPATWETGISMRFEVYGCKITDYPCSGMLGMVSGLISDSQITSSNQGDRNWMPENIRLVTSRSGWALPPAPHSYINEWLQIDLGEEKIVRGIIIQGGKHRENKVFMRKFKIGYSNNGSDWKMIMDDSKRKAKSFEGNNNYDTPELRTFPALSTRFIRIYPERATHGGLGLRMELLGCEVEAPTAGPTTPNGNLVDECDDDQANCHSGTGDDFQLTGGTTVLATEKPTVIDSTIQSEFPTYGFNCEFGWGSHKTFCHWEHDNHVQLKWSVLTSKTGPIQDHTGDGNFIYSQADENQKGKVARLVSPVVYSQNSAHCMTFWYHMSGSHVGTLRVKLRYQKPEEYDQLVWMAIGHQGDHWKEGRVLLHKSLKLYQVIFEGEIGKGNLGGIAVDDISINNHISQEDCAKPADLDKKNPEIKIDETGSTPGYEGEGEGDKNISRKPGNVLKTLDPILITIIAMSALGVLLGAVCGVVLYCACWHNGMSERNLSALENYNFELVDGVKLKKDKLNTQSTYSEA
Description: Cell-based competition binding with bt-VEGF in DU145 cells infected with adenovirus expressing WT NRP1. As to conditions: HS value in brackets beside IC50.

For data set [4], the system named is A375P (malignant melanoma) cells. Description: 3D spheroid invasion assay. It counts as cell-based.
The next data set deals with T3, NRP1-b1 (Homo sapiens, UniProt O14786).
T3 construct: His6 (TEV protease-cleavable) (N); made in house; host or cells: Escherichia coli Rosetta Gami 2 (DE3) pLysS
T3 sequence (O14786 273-427): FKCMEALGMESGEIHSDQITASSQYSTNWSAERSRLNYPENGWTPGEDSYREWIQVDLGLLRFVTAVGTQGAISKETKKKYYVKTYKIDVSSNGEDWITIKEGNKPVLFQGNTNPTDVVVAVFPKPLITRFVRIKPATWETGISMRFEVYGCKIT
Description: SPR equilibrium binding assay (Biacore 4000), immobilised NRP1-b1. The following applies: equilibrium (steady-state) binding, 25 °C, average ± SD of high and low density surfaces. The method, then:
All the compounds were evaluated using an SPR binding assay (Biacore) where recombinant NRP1-b1b2 protein was immobilized on a dextran coated chip.[23] Selected compounds were then evaluated in competitive binding assay systems using biotinylated VEGF. […] This encouraging result prompted us to conduct a more focused structure–activity study around the 10a structure.
Surface plasmon resonance experiments were performed using a Biacore 4000 instrument at 25 °C. Sensor chips, buffer stock solutions, and immobilization reagents were from GE Healthcare. Recombinant human NRP1-b1 was as above. Other reagents were obtained from Sigma. Immobilization: PBS (containing 0.05% surfactant P20) was used as the running buffer. The four flow cells were treated in the same way to optimize throughput. In summary, using a CM5 chip spots 1 and 2 were activated with the coupling reagents EDC and NHS for 10 min. NRP1-b1 at a concentration of 20 μg/mL in 10 mM sodium acetate pH 5 was injected onto the surface for 10 and 5 min in spots 1 and 2, respectively, to generate surfaces with high and low density. The immobilization levels ranged from 2302 to 1823 RU on spot 1 and from 948 to 1112 RU in spot 2. The unmodified spot 3 was used as a reference. […] Dose–responses were obtained using a 2-fold sample dilution from 16 μM to 31 nM, using an injection time of 60 s. Surface regeneration between injections was not necessary, but a wash step with 1 M NaCl was included after injection of the highest concentration sample for each compound. Data processing: Binding curves were corrected for variations in DMSO concentration and normalized by molecular weight. Binding results to high and low-density surfaces were processed independently and the average ± SD is presented. KDs reported are derived from steady-state binding responses and therefore correspond to the equilibrium binding affinity of the compounds.

For data set [5], the system named is HUVEC cells. Also noted: method as in PMID 20151671. As to conditions: 100 μM in combination with VEGF-A; cited from earlier work.
A further data set concerns NRP1. Also noted: method as in PMID 20151671. As to conditions: read-out: IC50, inhibition of bt-VEGF-A binding to NRP1; cited from earlier work.
The mark [6] stands for this setting: female, BABL/c (so in the source); BALB/c), mouse, plasma, IV bolus 2 mg/kg.

The structures appear in SMILES notation.

Regarding `N=C(N)NCCC[C@H](NC(=O)c1sccc1NS(=O)(=O)c1cc(-c2ccc(CN)cc2)cc2c1OCC2)C(=O)O` [compound 1, (3-((5-(4-(Aminomethyl)phenyl)-2,3-dihydrobenzofuran)-7-sulfonamido)thiophene-2-carbonyl)-L-arginine], the “effect on GCM-induced production of TGFβ” value in the data set on Nrp1+ Tregs is “inhibited the GCM-induced production of TGFβ”. For the same molecule, the “effect on HUVEC migration, compound alone” value with HUVEC cells [1] was “did not influence the migratory ability of these cells”. The “effect on VEGF-induced wound closure” value in the data set on HUVEC cells [2] was “can delay the VEGF-induced wound closure”. Moreover, the half-life in [3] (female, BABL/c, mouse, plasma, IV) is 4.29 h. Also, the clearance in [3] (female, BABL/c, mouse, plasma, IV bolus 2 mg/kg) came to 14 mL/min/kg. Besides, the “binding to NRP2 by SPR” value at NRP2 is “no detectable NRP2 binding”. Further, the “DU145/cells.Ad.NRP1, (HS)” value on DU145/cells.Ad.NRP1 came out at 0.9. Also, in data set [4] (30 μM + VEGF-A 25 ng/mL, 7 days), the “effect on A375P spheroid invasion induced by VEGF-A” value was “significantly inhibited invasion induced by VEGF-A”. Further, the “effect on A375P radial invasion, compound alone” value in data set [4] (30 μM, compared to DMSO control) is given as “no significant effect on radial invasion”.

As to `N=C(N)NCCC[C@H](NC(=O)c1sccc1NS(=O)(=O)c1cc(-c2ccccc2CNCc2ccccn2)cc2c1OCC2)C(=O)O` [9e, Nω-((2,2,4,6,7-Pentamethyl-2,3-dihydrobenzofuran-5-yl)sulfonyl)-N2-(3-((5-(2-(((pyridin-2-ylmethyl)amino)methyl)phenyl)-2,3-dihydrobenzofuran)-7-sulfonamido)thiophene-2-carbonyl)-L-arginine], at NRP1-b1, binding was characterised by a dissociation constant (Kd) of 680 ± 210 nM.

For the molecule `N=C(N)NCCC[C@H](NC(=O)c1sccc1NS(=O)(=O)c1cc(-c2ccccc2CNCc2ncc[nH]2)cc2c1OCC2)C(=O)O` [9b, N2-(3-((5-(2-((((1H-Imidazol-2-yl)methyl)amino)methyl)phenyl)-2,3-dihydrobenzofuran)-7-sulfonamido)thiophene-2-carbonyl)-Nω-((2,2,4,6,7-pentamethyl-2,3-dihydrobenzofuran-5-yl)sulfonyl)-L-arginine], binding on NRP1-b1 was characterised by a dissociation constant (Kd) of 1770 ± 100 nM.

In turn, `N=C(N)NCCC[C@H](NC(=O)c1sccc1NS(=O)(=O)c1cc(-c2cccc(CNCc3ccccn3)c2)cc2c1OCC2)C(=O)O` [10e, Nω-((2,2,4,6,7-Pentamethyl-2,3-dihydrobenzofuran-5-yl)sulfonyl)-N2-(3-((5-(3-(((pyridin-2-ylmethyl)amino)methyl)phenyl)-2,3-dihydrobenzofuran)-7-sulfonamido)thiophene-2-carbonyl)-L-arginine] gave a Kd at NRP1-b1 of 410 ± 90 nM.

As to `N=C(N)NCCC[C@H](NC(=O)c1sccc1NS(=O)(=O)c1cc(-c2cccc(CNCc3cn[nH]c3)c2)cc2c1OCC2)C(=O)O` [10d, N2-(3-((5-(3-((((1H-Pyrazol-4-yl)methyl)amino)methyl)phenyl)-2,3-dihydrobenzofuran)-7-sulfonamido)thiophene-2-carbonyl)-Nω-((2,2,4,6,7-pentamethyl-2,3-dihydrobenzofuran-5-yl)sulfonyl)-L-arginine], in data set [3] (IV bolus 2 mg/kg), the t1/2 was 1.20 h. Further, the half-life in data set [3] (female, BABL/c (so in the source); BALB/c), mouse, plasma, IV) is 1.2 h. In data set [3] (setting [6]), the AUC(0-inf) was found to be 3140 ng·h/mL, the peak level (Cmax) was 2620 ng/mL, the Tmax was found to be 4.8 min and the Vd stood at 1.1 L/kg. In data set [3] (setting [6]), the clearance was 18.4 mL/min/kg. Also, on NRP1-b1, the Kd came out at 1430 ± 110 nM.

In turn, `N=C(N)NCCC[C@H](NC(=O)c1sccc1NS(=O)(=O)c1cc(-c2ccccc2CNCc2cc[nH]n2)cc2c1OCC2)C(=O)O` [9c, N2-(3-((5-(2-((((1H-Pyrazol-3-yl)methyl)amino)methyl)phenyl)-2,3-dihydrobenzofuran)-7-sulfonamido)thiophene-2-carbonyl)-Nω-((2,2,4,6,7-pentamethyl-2,3-dihydrobenzofuran-5-yl)sulfonyl)-L-arginine] displayed a Kd at NRP1-b1 of 2100 ± 40 nM.

For `N=C(N)NCCC[C@H](NC(=O)c1sccc1NS(=O)(=O)c1cc(-c2ccccc2CNCc2cn[nH]c2)cc2c1OCC2)C(=O)O` [9d, N2-(3-((5-(2-((((1H-Pyrazol-4-yl)methyl)amino)methyl)phenyl)-2,3-dihydrobenzofuran)-7-sulfonamido)thiophene-2-carbonyl)-Nω-((2,2,4,6,7-pentamethyl-2,3-dihydrobenzofuran-5-yl)sulfonyl)-L-arginine], at NRP1-b1, binding was characterised by a dissociation constant (Kd) of 2140 ± 70 nM.

Molecule `N=C(N)NCCC[C@H](NC(=O)c1sccc1NS(=O)(=O)c1cc(-c2cccc(CNCc3cc[nH]n3)c2)cc2c1OCC2)C(=O)O` [10c, N2-(3-((5-(3-((((1H-Pyrazol-3-yl)methyl)amino)methyl)phenyl)-2,3-dihydrobenzofuran)-7-sulfonamido)thiophene-2-carbonyl)-Nω-((2,2,4,6,7-pentamethyl-2,3-dihydrobenzofuran-5-yl)sulfonyl)-L-arginine] returned a Kd at NRP1-b1 of 1450 ± 70 nM.

As for `CN(C)Cc1cccc(-c2cc3c(c(S(=O)(=O)Nc4ccsc4C(=O)N[C@@H](CCCNC(=N)N)C(=O)O)c2)OCC3)c1` [compound 13, (3-((5-(3-((Dimethylamino)methyl)phenyl)-2,3-dihydrobenzofuran)-7-sulfonamido)thiophene-2-carbonyl)-L-arginine], the “clearance and AUC compared with 1” value in data set [3] (IV, in words) was “notably higher clearance and lower AUC than 1”.

As to `N=C(N)NCCC[C@H](NC(=O)c1sccc1NS(=O)(=O)c1cccc2nsnc12)C(=O)O` [EG00229, (S)-2-(3-(benzo[c][1,2,5]thiadiazole-4-sulfonamido)thiophene-2-carboxamido)-5-((diaminomethylene)amino)pentanoic acid], in the data set on HUVEC cells [5], the “reduction of migration (previously reported)” value is on record as “≈ 34%”. Moreover, the IC50 in the data set with NRP1 is 8000 nM.

For `N=C(N)NCCC[C@H](NC(=O)c1sccc1NS(=O)(=O)c1cc(-c2cccc(CNCc3ncc[nH]3)c2)cc2c1OCC2)C(=O)O` [10b, N2-(3-((5-(3-((((1H-Imidazol-2-yl)methyl)amino)methyl)phenyl)-2,3-dihydrobenzofuran)-7-sulfonamido)thiophene-2-carbonyl)-Nω-((2,2,4,6,7-pentamethyl-2,3-dihydrobenzofuran-5-yl)sulfonyl)-L-arginine], the Kd at NRP1-b1 came to 840 ± 160 nM.

(Values after publication PMC5957473, “Small Molecule Neuropilin-1 Antagonists Combine Antiangiogenic and Antitumor Activity with Immune Modulation through Reduction of Transforming Growth Factor Beta (TGFβ) Production in Regulatory T-Cells” (Journal of Medicinal Chemistry, 2018).)
